Results published in patent US20260242395A1, “AMINOHETEROARYL KINASE INHIBITORS” (ALLORION THERAPEUTICS INC, priority 2022, published 2026).

Columns and labels:
CDK4/CyclinD1 = molecular target: T1, CDK4/CyclinD1 (Homo sapiens, UniProt P11802); test: CDK4/CyclinD1 kinase inhibitory activity (Caliper mobility shift); type: biochemical; settings: enzyme 20 nM, ATP 672 uM, 28° C. 30 min; read-out: CDK4/Cyclin D1 IC50
T1 construct: purchased ProQinase 0142-0143-1
Experimental: CDK4/CyclinD1 kinase inhibitory activity (IC50): 5 μl of various dilutions of test compound in 1× kinase buffer (20 mM HEPES, pH 7.5, 10 mM MgCl2, 2 mM DTT and 0.01% Triton X-100) was mixed with 10 μL of either CDK4/Cyclin D1 (ProQinase, 0142-0143-1 #, final concentration 20 nM in 1× Kinase buffer) or in 384 plates and incubated at room temperature for 10 min. To initiate each reaction, 10 μL of peptide solution containing fluorescently-labeled-peptide 8(5-FAM-IPTSPITTTYFFFKKK-COOH, GL, 112396 #, final concentration 3000 nM) and ATP (final concentration 672 uM for CDK4/CyclinD1) in 1×Kinase buffer was added to each of the wells containing test compound and CDK4/CyclinD1 mixture. The reaction is then allowed to proceed at 28° C. for 30 min and terminated by the addition of 25 μL stop buffer (100 mM HEPES pH 7.5, 50 mM EDTA, 0.2% Coating Reagent #3 (Perkin Elmer, 760050 #) and 0.015% Brij-35).
(§1) Following the kinase reaction, Caliper EZ reader II (Downstream voltages: −500V, Upstream voltages: −2250V, Base pressure −0.5 PSI, Screen pressure −1.2 PSI) was used to separate the phosphorylated (product) and the unphosphorylated (substrate) fluorescently-labeled peptide 8 based on their different mobility. Both substrate and product were measured and the ratio of these values were used to generate % conversion by Caliper EZ reader II. These conversion values were then transformed into % inhibition of kinase activity using the formula: % Inhibition=[(MA−X)/(MA−MI)]×100% where MA=conversion value of DMSO only controls, MI=conversion value of no enzyme controls and X=conversion value at any given compound dose. IC50 values were then calculated by plotting dose-response curves and then using the XLfit application in Excel software.

CDK6/CyclinD3 = molecular target: T2, CDK6/CyclinD3 (Homo sapiens, UniProt Q00534); test: CDK6/CyclinD3 kinase inhibitory activity (Caliper mobility shift); type: biochemical; settings: enzyme 15 nM, ATP 800 μM, 28° C. 30 min; read-out: CDK6/Cyclin D3 IC50
T2 construct: purchased Carna 04-107
T2 sequence (Q00534 whole entry): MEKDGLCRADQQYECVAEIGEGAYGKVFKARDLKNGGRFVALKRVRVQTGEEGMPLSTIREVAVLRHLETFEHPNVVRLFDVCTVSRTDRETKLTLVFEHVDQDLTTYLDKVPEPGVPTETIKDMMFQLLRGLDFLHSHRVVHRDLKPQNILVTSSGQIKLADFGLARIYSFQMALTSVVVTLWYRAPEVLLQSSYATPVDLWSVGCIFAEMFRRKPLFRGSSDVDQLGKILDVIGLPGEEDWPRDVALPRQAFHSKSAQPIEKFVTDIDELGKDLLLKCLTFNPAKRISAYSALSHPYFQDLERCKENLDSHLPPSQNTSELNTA
T2 sequence (P30281 whole entry partner): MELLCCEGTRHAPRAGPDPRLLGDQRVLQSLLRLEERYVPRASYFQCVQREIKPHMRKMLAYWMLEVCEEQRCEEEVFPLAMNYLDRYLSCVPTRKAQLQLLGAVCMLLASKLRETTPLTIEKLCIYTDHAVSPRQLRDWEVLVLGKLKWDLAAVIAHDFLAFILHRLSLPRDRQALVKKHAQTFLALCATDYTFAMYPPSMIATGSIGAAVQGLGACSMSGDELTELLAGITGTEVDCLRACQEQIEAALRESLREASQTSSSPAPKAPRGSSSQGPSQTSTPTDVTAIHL
Experimental: CDK6/CyclinD3 kinase inhibitory activity (IC50): 5 μl of various dilutions of test compound in 1× kinase buffer (50 mM HEPES pH 7.5, 10 mM MgCl2, 2 mM DTT and 0.01% Brij-35) was mixed with 10 μL of CDK6/CyclinD3 (Carna, 04-107 #, final concentration 15 nM in 1× Kinase buffer) in 384 plates and incubated at room temperature for 10 min. To initiate each reaction, 10 μL of peptide solution containing fluorescently-labeled -peptide 8(5-FAM-IPTSPITTTYFFFKKK-COOH, GL, 112396 #, final concentration 3000 nM) and ATP (final concentration 800 μM for CDK6/CyclinD3 in 1× Kinase buffer was added to each of the wells containing test compound and CDK6/CyclinD3. The reaction is then allowed to proceed at 28° C. for 30 min and terminated by the addition of 25 μL stop buffer (100 mM HEPES pH 7.5, 50 mM EDTA, 0.2% Coating Reagent #3 (Perkin Elmer, 760050 #) and 0.015% Brij-35).
as §1

T1 sequence (P11802 whole entry): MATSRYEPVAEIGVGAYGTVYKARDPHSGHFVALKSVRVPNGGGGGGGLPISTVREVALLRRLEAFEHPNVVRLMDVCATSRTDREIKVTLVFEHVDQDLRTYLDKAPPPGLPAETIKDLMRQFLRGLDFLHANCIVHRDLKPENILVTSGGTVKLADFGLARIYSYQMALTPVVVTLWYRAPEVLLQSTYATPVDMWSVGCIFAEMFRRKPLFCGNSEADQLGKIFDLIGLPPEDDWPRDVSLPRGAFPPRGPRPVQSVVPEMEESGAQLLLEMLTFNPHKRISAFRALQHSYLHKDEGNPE
T1 sequence (P24385 whole entry partner): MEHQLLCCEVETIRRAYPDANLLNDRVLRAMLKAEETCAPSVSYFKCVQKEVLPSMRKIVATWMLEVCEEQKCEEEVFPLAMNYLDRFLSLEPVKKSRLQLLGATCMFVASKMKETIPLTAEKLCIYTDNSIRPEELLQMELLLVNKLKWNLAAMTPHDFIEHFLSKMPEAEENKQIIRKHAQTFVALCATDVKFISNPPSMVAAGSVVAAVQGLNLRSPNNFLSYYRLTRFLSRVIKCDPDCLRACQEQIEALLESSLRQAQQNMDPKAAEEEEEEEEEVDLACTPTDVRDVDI

Structure (SMILES)	IC50 (CDK4/CyclinD1) [nM]	IC50 (CDK6/CyclinD3) [nM]
[2H]c1nc(N[C@@H]2CCOC[C@H]2O)nc(-c2cc(F)c3nc(C)c(C(C)NC4CC4)cc3c2)c1F (single isomer, unassigned) [Example 77a]	< 10	100 to 1000
[2H]c1nc(N[C@@H]2CCOC[C@H]2O)nc(-c2cc(F)c3nc(C)c(C(C)NC4CC4)cc3c2)c1F (single isomer, unassigned) [Example 77b]	< 10	100 to 1000
Cc1nc2c(F)cc(-c3ccnc(N[C@@H]4CCOC[C@H]4O)n3)cc2c(C)c1C(C)O (single isomer, unassigned) [Example 82a]	10 to 100	100 to 1000
Cc1nc2c(F)cc(-c3ccnc(N[C@@H]4CCOC[C@H]4O)n3)cc2c(C)c1C(C)O (single isomer, unassigned) [Example 82b]	10 to 100	100 to 1000
[2H]c1nc(N[C@@H]2CCOC[C@H]2O)nc(-c2cc(F)c3nc(C)c(C(C)O)c(C)c3c2)c1F (single isomer, unassigned) [Example 84a]	< 10	10 to 100
[2H]c1nc(N[C@@H]2CCOC[C@H]2O)nc(-c2cc(F)c3nc(C)c(C(C)O)c(C)c3c2)c1Cl (single isomer, unassigned) [Example 85a]	< 10	10 to 100
[2H]c1nc(N[C@@H]2CCOC[C@H]2O)nc(-c2cc(F)c3nc(C)c(C(C)O)c(C)c3c2)c1Cl (single isomer, unassigned) [Example 85b]	< 10	10 to 100
CC(C)(O)c1cnc2c(F)cc(-c3nc(N[C@@H]4CCOC[C@H]4O)ncc3C#N)cc2c1 [Example 2, 4-(8-fluoro-3-(2-hydroxypropan-2-yl)quinolin-6-yl)-2-(((3S,4R)-3-hydroxytetrahydro-2H-pyran-4-yl)amino)pyrimidine-5-carbonitrile]	10 to 100	100 to 1000

Second part, the molecule after the results:

IC50 (CDK4/CyclinD1) [nM]	IC50 (CDK6/CyclinD3) [nM]	Structure (SMILES)
< 10	10 to 100	Cc1c(C(C)O)cnc2c(F)cc(-c3nc(N[C@@H]4CCOC[C@H]4O)ncc3Cl)cc12 (single isomer, unassigned) [Example 88b]
10 to 100	100 to 1000	CC(NC1CC1)c1cnc2c(F)cc(-c3nc(N[C@@H]4CCOC[C@H]4O)ncc3Cl)cc2c1Cl (single isomer, unassigned) [Example 90a]
< 10	100 to 1000	CC(NC1CC1)c1cnc2c(F)cc(-c3nc(N[C@@H]4CCOC[C@H]4O)ncc3Cl)cc2c1Cl (single isomer, unassigned) [Example 90b]
10 to 100	100 to 1000	Cc1c(C(C)NC2CC2)cnc2c(F)cc(-c3nc(N[C@@H]4CCOC[C@H]4O)ncc3Cl)cc12 (single isomer, unassigned) [Example 91a]
10 to 100	100 to 1000	Cc1c(C(C)NC2CC2)cnc2c(F)cc(-c3nc(N[C@@H]4CCOC[C@H]4O)ncc3F)cc12 (single isomer, unassigned) [Example 93a]
< 10	100 to 1000	Cc1c(C(C)NC2CC2)cnc2c(F)cc(-c3nc(N[C@@H]4CCOC[C@H]4O)ncc3F)cc12 (single isomer, unassigned) [Example 93b]
< 10	100 to 1000	CC1(C)NCc2c(cnc3c(F)cc(-c4nc(N[C@@H]5CCOC[C@H]5O)ncc4F)cc23)C1O (single isomer, unassigned) [Example 106a]
10 to 100	≥ 1000	COC1c2cnc3c(F)cc(-c4nc(N[C@@H]5CCOC[C@H]5O)ncc4F)cc3c2CNC1(C)C (single isomer, unassigned) [Example 108a]
< 10	100 to 1000	COC1c2cnc3c(F)cc(-c4nc(N[C@@H]5CCOC[C@H]5O)ncc4F)cc3c2CNC1(C)C (single isomer, unassigned) [Example 108b]
10 to 100	100 to 1000	CN1Cc2c(cnc3c(F)cc(-c4nc(N[C@@H]5CCOC[C@H]5O)ncc4Cl)cc23)C(O)C1(C)C (single isomer, unassigned) [Example 111a]
100 to 1000	≥ 1000	CN1Cc2c(cnc3c(F)cc(-c4nc(N[C@@H]5CCOC[C@H]5O)ncc4Cl)cc23)C(O)C1(C)C (single isomer, unassigned) [Example 111b]
